From US6300501A, “Histidine-(N-benzyl glycinamide) inhibitors of protein farnesyl transferase” (Warner-Lambert Company, priority 1998, dated 2001)
Where two headings read alike, the source gives them in different places.

Legend:
[1] = tested on: ras farnesylation in ras-transformed cells; experiment: Gel shift assay; type: cell-based; details: ras-transformed cells, 18-hour incubation; read-out: Gel Shift (μM) MED (minimal effective dose to observe inhibition of ras farnesylation)
Procedure: Twenty-four hours after planting 2×10^6 ras-transformed cells per treatment condition, the farnesylation inhibitor is added at varying concentrations. Following an 18-hour incubation period, cells are lysed in phosphate-buffered saline containing 1% Triton X-100, 0.5% sodium deoxycholate, and 0.1% SDS (sodium dodecyl sulfate), pH 7.4 in the presence of several protease inhibitors (PMSF (phenylmethylsulfonylfluoride), antipain, leupeptin, pepstatin A, and aprotinin all at 1 μg/mL). Ras protein is immunoprecipitated from the supernatants by the addition of 3 μg v-H-ras Ab-2 (Y13-259 antibody from Oncogene Science). After overnight immunoprecipitation, 30 μL of a 50% protein G-Sepharose slurry (Pharmacia) is added followed by 45-minute incubation. Pellets are resuspended in 2× tris-glycine loading buffer (Novex) containing 5% β-mercaptoethanol and then denatured by 5 minutes boiling prior to electrophoresis on 14% Tris-glycine SDS gels. Using Western transfer techniques, proteins are transferred to nitrocellulose membranes followed by blocking in blocking buffer. Upon overnight incubation with primary antibody (pan-ras Ab-2 from Oncogene Science), an antimouse HRP (horse radish peroxidase) conjugate secondary antibody (Amersham) is employed for detection of the ras protein. Blots are developed using ECL(enhanced chemiluminescence) techniques (Amersham).

[2] = tested on: H61 cells: NIH transformed 3T3 H-ras cells; experiment: Clonogenic assay (6 well plates, soft agar); type: cell-based; details: colonies counted after Day 13, read-out: Clonogenic Assay IC50
Procedure: Clonoaenic Assay (6 well lates)
Sometime previous to setting up an actual test:
1. Make up 1.5% Bacto Agar in Milli-Q water and autoclave.
2. Make up 500 mL 2× DMEM-HG without phenol red by combining the following:
1 bottle DMEM base powder (Sigma D-5030)
Adjust pH to 7.1 with HCL; filter sterilize.
1. Set up makeshift water bath (beaker of water with thermometer, on hot plate) in the hood. Keep water temperature between 37° C. to 43° C.
2. […] 1.5% Bacto Agar for approximately 2 minutes on high, or until completely melted. Then let it cool somewhat before using it. (You can keep it from resolidifying by setting the bottle on the hot plate.) […]
3. Bottom Layer (0.6% agar) Top Layer (0.3% agar)
20% calf serum 20% calf serum
40% Bacto Agar (1.5%) 20% Bacto Agar (1.5%)
Depending on the volume of each layer needed, use either 50 mL conical tubes or 200 mL turnip tubes which can be floated in the "water bath".
4. Add 1 mL of bottom layer agar/medium to each well: deliver 1 mL warm agar/medium to a well; then using the tip of the pipet, spread the agar/medium around to completely cover the bottom. Repeat with next well.
5. Allow the plates to set at room temperature for about 5 minutes until the bottom layer solidifies.
6. Label sterile Falcon 2054 (12×75 mm) tubes and add appropriate volume of drug solutions into them.
7. Aliquot 4 AL of DMSO or drug solution per 1 mL of agar/medium to appropriate tubes; then add the agar/medium/cells to each tube. Always add 1 mL more than will actually be needed. Mix up and down in the pipet (gently); then deliver 1 mL to the center of each well. The upper layer is less viscous, so it will generally spread out over the bottom layer unaided. If necessary, rotate the plane of the plate gently to spread the top layer evenly over the bottom layer.
8. Let plates set for 5 or 10 minutes at room temperature to solidify, then put into 5% CO2, 37° C. incubator.
9. On Day 13, add 0.5 mL of INT (tetrazolium 1 mg/mL in Milli-Q H2 O, filter sterilized) and return plates to incubator.

[3] = biological target: T1, SF9 affinity purified rat farnesyl protein transferase (Rattus norvegicus, UniProt Q02293+Q04631); experiment: PFT inhibitory activity (radiolabeled farnesyl pyrophosphate, streptavidin bead assay); type: biochemical
T1 construct: made in house; host or cells: Sf9 insect cells (baculovirus system inferred from b7)
T1 sequence (Q02293 whole entry, one chain of several): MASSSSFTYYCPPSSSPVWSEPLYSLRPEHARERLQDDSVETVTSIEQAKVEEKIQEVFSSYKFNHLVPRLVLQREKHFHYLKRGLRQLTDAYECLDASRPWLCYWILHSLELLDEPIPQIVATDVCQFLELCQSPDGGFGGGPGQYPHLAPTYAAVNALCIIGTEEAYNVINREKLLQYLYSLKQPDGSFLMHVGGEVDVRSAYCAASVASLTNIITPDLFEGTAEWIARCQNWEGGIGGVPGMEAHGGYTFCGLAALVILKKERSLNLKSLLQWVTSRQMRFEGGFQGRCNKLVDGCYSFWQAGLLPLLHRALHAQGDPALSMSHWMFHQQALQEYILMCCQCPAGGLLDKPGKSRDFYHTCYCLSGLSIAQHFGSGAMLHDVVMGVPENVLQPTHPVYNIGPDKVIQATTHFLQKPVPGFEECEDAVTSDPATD
Procedure: The protein:farnesyl transferase (PFT) or farnesyl protein transferase (FPT) inhibitory activity of compounds of the present invention were assayed in HEPES buffer (pH 7.4) containing 5 mM potassium phosphate and 20 μM ZnCl2. The solution also contained 5 mM DTT (dithiothreitol), 5 mM MgCl2, and 0.1% PEG 8000. Assays were performed in 96 well plates (Wallec) and employed solutions composed of varying concentrations of a compound of the present invention in 100% DMSO (dimethylsulfoxide). Upon addition of both substrates, radiolabeled farnesyl pyrophosphate ([1^3 H], specific activity 15-30 Ci/mmol, final concentration 134 nM) and (biotinyl)-Ahe-Thr-Lys-Cys-Val-Ile-Met ([3aS[3a alpha, 4 beta, 6a alpha]-hexahydro-2-oxo-1H-thieno[3,4-d]imidazole-5-pentanoic acid]-[7-aminoheptanoic acid]-Thr-Lys-Cys-Val-Ile-Met) (Ahe is 7-aminoheptanoic acid, Thr is threonine, Lys is lysine, Cys is cysteine, Val is valine, Ile is isoleucine and Met is methionine) (final concentration 0.2 μM), the enzyme reaction was started by addition of SF9 affinity purified rat farnesyl protein transferase. After incubation at 30° C. for 30 minutes, the reaction was terminated by diluting the reaction 2.5-fold with a stop buffer containing 1.5 M magnesium acetate, 0.2 M H3 PO4, 0.5% BSA (bovine serum albumin), and strepavidin beads (Amersham) at a concentration of 1.3 mg/mL. After allowing the plate to settle for 30 minutes at room temperature, radioactivity was quantitated on a microBeta counter (Model 1450, Wallec). The assay was also carried out without 5 mM potassium phosphate.

[4] = HEPES buffer pH 7.4, without 5 mM potassium phosphate, read-out: IC50 (μM) Hepes
[5] = HEPES buffer pH 7.4 containing 5 mM potassium phosphate, read-out: IC50 (μM) 5 mM K3 PO4 -2

Compound	IC50 [3, 4]	IC50 [3, 5]	minimal effective concentration [1]	IC50 [2]	IC50 ([2]; 312 h)
CC(CNC(=O)CN(Cc1ccc(OCc2ccccc2)cc1)C(=O)[C@H](Cc1c[nH]cn1)NC(=O)CCc1ccccc1)c1ccccc1 (stereo partly drawn) [Example 17, (S)-N-(4-Benzyloxy-benzyl)-3-(1H-imidazole-4-yl)-2-(3-phenyl-proponylamino)-N-[(2-phenyl-propylcarbamoyl)-methyl]-propionamide]	2.8 µM	0.086 µM	0.2 µM	> 1000 nM	
CC(CNC(=O)CN(Cc1cccc2ccccc12)C(=O)[C@H](Cc1c[nH]cn1)NC(=O)OCc1ccccc1)c1ccccc1 (stereo partly drawn) [Example 37, (S)-(2-(1H-Imidazole-4-yl)-1-{naththalen-1-ylmethyl-[(2-phenyl-propylcarbamoyl)-methyl]-carbamoyl}-ethyl)-carbamic Acid Benzyl Ester]	0.92 µM	0.026 µM	≥ 0.2 µM		
[1-{Cyclohexylmethyl-[(2-phenyl-propylcarbamoyl)-methyl]-carbamoyl}-2-(3H-imidazole-4-yl)-ethyl]-carbamic Acid Benzyl Ester [Example 61]	0.66 µM	0.018 µM	0.01 µM		
CC(C)(CNC(=O)CN(Cc1ccccn1)C(=O)[C@H](Cc1c[nH]cn1)NC(=O)OCc1ccccc1)c1ccccc1 [Example 46, (S)-(2-(1H-Imidazole-4-yl)-1-{[(2-methyl-2-phenyl-propylcarbamoyl)-methyl]-pyridin-2-ylmethyl-carbamoyl}-ethyl)-carbamic Acid Benzyl Ester]	1.98 µM	0.034 µM	1 µM		
CC(CNC(=O)CN(Cc1ccc(Br)cc1)C(=O)[C@H](Cc1c[nH]cn1)NC(=O)OCc1ccccc1)c1ccccc1 (stereo partly drawn) [Example 29, (S)-[1-{(4-Bromo-benzyl)-[(2-phenyl-propylcarbamoyl)-methyl]-carbamoyl}-2-(1H-imidazole-4-yl)-ethyl]-carbamic Acid Benzyl Ester]			0.1 µM		> 1000 nM
CC(C)(CNC(=O)CN(Cc1ccc(OCc2ccccc2)cc1)C(=O)[C@H](Cc1c[nH]cn1)NC(=O)OCc1ccsc1)c1ccccc1 [Example 54, (S)-[1-{(4-Benzyloxy-benzyl)-[(2-methyl-2-henyl-propylcarbamoyl)-methyl]-carbamoyl}-2-(1H-imidazole-4-yl)-ethyl]-carbamic acid thiophen-3-ylmethyl Ester]	0.2 µM	0.0012 µM	0.2 µM		
CC(C(=O)NCC(C)(C)c1ccccc1)N(Cc1ccc(Cl)cc1)C(=O)[C@H](Cc1cnc[nH]1)NC(=O)OCc1ccccc1 (stereo partly drawn) [Example 55, (S)-[1-{(4-Chloro-benzyl)-[1-(2-methyl-2-phenyl-propylcarbamoyl)-ethyl]-carbamoyl}-2-(3H-imidazole-4-yl)-ethyl]-carbamic Acid Benzyl Ester]	0.86 µM	0.014 µM	0.05 µM		
CC(C)CN(CC(=O)NCC(C)c1ccccc1)C(=O)[C@H](Cc1c[nH]cn1)NC(=O)OCc1ccccc1 (stereo partly drawn) [Example 62, (S)-(2-(1H-Imidazol-4-yl)-1-{isobutyl-[(2-phenyl-propylcarbamoyl)-methyl]-carbamoyl}-ethyl)-carbamic Acid Benzyl Ester]	2.6 µM	0.029 µM			

More lines, in order of falling IC50 [3, 4], values ahead:

IC50 [3, 4]	IC50 [3, 5]	Compound	minimal effective concentration [1]	IC50 [2]	IC50 ([2]; 312 h)
0.52 µM	0.004 µM	COc1cccc(CN(CC(=O)NCC(C)(C)c2ccccc2)C(=O)[C@H](Cc2c[nH]cn2)NC(=O)OCc2ccccc2)c1 [Example 59, (S)-(2-(1H-Imidazole-4-yl)-1-{(3-methoxy-benzyl)-[(2-methyl-2-phenyl-propylcarbamoyl)-methyl]-carbamoyl}-ethyl)-carbamic Acid Benzyl Ester]	0.05 µM		
0.5 µM	0.0029 µM	CC(CNC(=O)CN(Cc1ccc(N(C)C)cc1)C(=O)[C@H](Cc1c[nH]cn1)NC(=O)OCc1ccccc1)c1ccccc1 (stereo partly drawn) [Example 48, (S)-[1-{(4-Dimethylamino-benzyl)-[(2-phenyl-propylcarbamoyl)-methyl]-carbamoyl}-2-(1H-imidazole-4-yl)-ethyl]-carbamic Acid Benzyl Ester]	0.05 µM		
0.38 µM	0.0052 µM	COc1ccccc1CN(CC(=O)NCC(C)(C)c1ccccc1)C(=O)[C@H](Cc1c[nH]cn1)NC(=O)OCc1ccccc1 [Example 57, (S)-(2-(1H-Imidazole-4-yl)-1-{(2-methoxy-benzyl)-[(2-methyl-2-phenyl-propylcarbamoyl)-methyl]-carbamoyl}-ethyl)-carbamic Acid Benzyl Ester]			
0.32 µM	0.012 µM	Cc1ccc(CN(CC(=O)NCC(C)(C)c2ccccc2)C(=O)[C@H](Cc2c[nH]cn2)NC(=O)OCc2ccccc2)cc1 [Example 56, (S)-(2-(1H-Imidazole-4-yl)-1-{(4-methyl-benzyl)-[(2-methyl-2-phenyl-propylcarbamoyl)-methyl]-carbamoyl}-ethyl)-carbamic Acid Benzyl Ester]	0.05 µM		
0.15 µM	0.009 µM	CC(CNC(=O)CN(Cc1ccc(OCc2ccccc2)cc1)C(=O)[C@H](Cc1c[nH]cn1)NC(=O)NCc1ccccc1)c1ccccc1 (stereo partly drawn) [Example 26, (S)-N-(4-Benzyloxy-benzyl)-2-(3-benzyl-ureido)-3-(1H-imidazole-4-yl)-N-[(2-phenyl-propylcarbamoyl)-methyl]-propionamide]			
0.14 µM	0.016 µM	CC(C)(CNC(=O)CN(Cc1ccccc1OCc1ccncc1)C(=O)[C@H](Cc1c[nH]cn1)NC(=O)OCc1ccccc1)c1ccccc1 [Example 60, (S)-(2-(1H-Imidazole-4-yl)-1-{[(2-methyl-2-phenyl-propylcarbamoyl)-methyl]-[2-(pyridin-4-ylmethoxy)-benzyl]-carbamoyl}-ethyl)-carbamic Acid Benzyl Ester]	0.05 µM		
0.029 µM	0.005 µM	CN(Cc1ccccc1)C(=O)N[C@@H](Cc1c[nH]cn1)C(=O)N(CC(=O)NCC(C)(C)c1ccccc1)Cc1ccc(Cl)cc1 [Example 58, (S)-2-(3-Benzyl-3-methyl-ureido)-N-(4-chloro-benzyl)-3-(1H-imidazole-4-yl)-N-[(2-methyl-2-phenyl-propylcarbamoyl)-methyl]-propionamide]	0.05 µM		
